{"source": "patent US20030139361A1", "about": "“Drug for gene therapy” (priority 2000, published 2003)", "tested_on": "spleen cells derived from PVG rat and mitomycin-treated DA rat", "test": "Lymphocyte mixed culture test (BrdU incorporation)", "type": "cell-based", "settings": "4 days culture, BrdU 10 μM for last 16 hours; FIG. 2", "procedure": "To study the immunosuppressive activity of the human IDO protein prepared in Example 10, a lymphocyte mixed culture test was carried out. The spleen cells derived from a non-treated PVG rat and the spleen cells derived from a DA rat treated with 25 μg/ml of mitomycin (SIGMA-Aldrich Corporation) were seeded on a U bottom 96-well plate (NUNC Inc.) at 5×10^4/well and at 8×10^6/well, respectively. The IDO protein was then added and culturing was done for 4 days. Sixteen hours before the finish of culturing 5-bromo-2′deoxyuridine (BrdU) was added at a final concentration of 10 μM. The amount of BrdU incorporated into the intracellular DNA was quantified using a BrdU Labeling & Detection Kit III (Roche Diagnostics Inc.).", "data": [{"substance": "human IDO protein: Recombinant human indoleamine 2,3-dioxygenase protein prepared in Example 10 from E. coli", "values": [{"measurement": "immunosuppressive activity (amount of BrdU incorporated into intracellular DNA)", "result": "showed the immunosuppressive activity in a concentration-dependent manner"}]}]}
